Measurements: PubChem BioAssay AID1996
≈ marks a conversion by molar mass, not a printed value.

Conditions: buffer; pH 7.4; 200.0 µM

solubility kinetic [µg/mL] | SMILES
42.1 (≈ 133 µM) | c1ccc2sc(NC3=NCN(CC4CCCO4)CN3)nc2c1 (centres undefined)
43 (≈ 139 µM) | OCCC1CN(C2CCC2)CCN1Cc1ccc(F)c(F)c1 (centres undefined)
> 23.7 | Cc1ccc2cc(N)ccc2n1
> 49.4 | CC(C)(C)OC(=O)C(C)(C)O/N=C(\C(=O)O)c1csc(N)n1
3.2 (≈ 9.58 µM) | O=C(Nc1ccc2c(c1)OCCO2)c1cccc(Br)c1
> 27.9 | CSCC(=O)Nc1cc(C)on1
2.5 (≈ 9.05 µM) | Cn1c(-c2cc3ccccc3oc2=O)nc2ccccc21
3.8 (≈ 11.7 µM) | COc1ccc(-c2noc(CCC(=O)Nc3cccnc3)n2)cc1
> 53.9 | COc1ccc(CNC(=O)CN2C(=O)NC3(CCCCCC3)C2=O)cc1
22.2 (≈ 102 µM) | NCc1oc(-c2ccccc2)cc1C(=O)O
> 46.7 | CCOC(=O)C1CCCN(C(=O)c2cccc3ccccc23)C1 (centres undefined)
> 43.1 | O=C(NCCNC(=O)c1ccccn1)c1ccc(F)cc1
> 42.1 | CSc1ncccc1C(=O)OCC(=O)N1CCCC1
> 50.3 | Cc1ccccc1NC(=O)N1CCCN(c2ccc(C#N)cn2)CC1
4.4 (≈ 13 µM) | CCOc1cc(C=O)ccc1OCc1cc(=O)n2cc(C)ccc2n1
2.6 (≈ 7.99 µM) | CC(Oc1ccccc1)C(=O)Nc1nc(-c2ccncc2)cs1 (centres undefined)
37.9 (≈ 147 µM) | O=C(O)c1cc(N2CCOCC2)nc2ccccc12
4.6 (≈ 8.35 µM) | COc1cc(S(=O)(=O)N2CCOCC2)ccc1NC(=O)COC(=O)/C=C/c1cc(OC)c(OC)c(OC)c1
5.8 (≈ 17.4 µM) | O=C(Nc1cc(Cl)ccc1O)C1CC(c2ccccc2O)=NO1 (centres undefined)
0.8 (≈ 2.8 µM) | CCOC(=O)C1=C(N)c2ccccc2CC1C1CCCC1 (centres undefined)
1.7 (≈ 5.92 µM) | Cc1noc(C(=O)Nc2cc(Cl)ccc2O)c1Cl
3.6 (≈ 12.1 µM) | O=C(NCc1cccc(Cl)c1)c1ccc2ccccc2n1
> 42.2 | CC1CCC(NC(=O)CN2C(=O)NC(C)(C)C2=O)CC1 (centres undefined)
52.2 (≈ 135 µM) | COc1cc(CN2CCC(CO)(CCOc3ccccc3)CC2)cc(OC)c1
45.8 (≈ 149 µM) | CC(C)CNS(=O)(=O)c1cc2c3c(c1)CC(=O)N3CCC2
33.2 (≈ 111 µM) | COc1ccccc1CCNC(C)CCc1ccc(O)cc1 (centres undefined)
3.4 (≈ 6.44 µM) | COc1ccc(NS(=O)(=O)c2cc(NC(=O)COc3ccc(OC)cc3)ccc2N2CCOCC2)cc1
2.3 | Cl.Oc1cccc(Nc2ncnc3c2oc2ccccc23)c1

Second part, the compound before the results:

SMILES | solubility kinetic [µg/mL]
COc1ccc(C(C)(C)C)cc1NC(=O)C1CC(=O)N(C2CCCC2)C1 (centres undefined) | > 53.8
Cc1cc(NC(=O)CSc2nc3cc(Cl)ccc3o2)no1 | 0.5 (≈ 1.54 µM)
Cc1cc(NC(=O)CCl)no1 | > 26.2
O=C(NCCc1ccc(F)cc1)NC12CC3CC(CC(C3)C1)C2 | 6.5 (≈ 20.5 µM)
Cc1cccc(C)c1NC(=O)CNC(=O)CNC(=O)c1ccc2c(c1)OCO2 | > 57.5
O=C(Nc1ccc2c(c1)CCC2)c1ncoc1-c1ccccc1F | < 0.3
O=S(=O)(NC1=NCCC1)c1cccc(NC(=S)Nc2ccc(OC(F)F)cc2)c1 | > 66.1
CCS(=O)(=O)c1ncc(Cl)c(C(=O)Nc2ccccc2OC)n1 | 0.3 (≈ 0.843 µM)
Cl.Nc1ncnc2nc[nH]c12 | > 25.7
CC(C)c1ccccc1NC(=S)NCC1(N(C)C)CCCCC1 | 45.9 (≈ 138 µM)
CC(=O)c1ccc(NC(=O)c2ccccc2-c2ccccc2C(=O)O)cc1 | > 53.9
C=CCn1c(SCC(=O)NC2(C)CCS(=O)(=O)C2)nc2ccccc21 (centres undefined) | > 56.9
O=C(c1ccc(F)cc1)c1ccc(OCC(=O)N2CCOCC2)cc1 | > 51.5
O=C(OCC(=O)N1CCc2ccccc21)c1ccncc1 | 33.1 (≈ 117 µM)
Cc1cc(Cl)c(OCCOCCN2CCNCC2)c(Cl)c1.O=C(O)C(=O)O | 62.5
CCOc1cc(NC(=O)CCl)c(OCC)cc1NC(=O)CCl | 6.8 (≈ 19.5 µM)

SMILES | solubility kinetic [µg/mL]
COc1ccc(CCNc2nc(C)c(C(C)=O)s2)cc1OC | 44.1 (≈ 138 µM)
COC(=O)CC1C(=O)NCCN1C(=O)c1ccc(Cl)cc1 (centres undefined) | > 46.6
CCCCn1c(N)c(N(CC)C(=O)c2cccs2)c(=O)[nH]c1=O | 10.1 (≈ 30 µM)
CCCCN(C/C=C/c1ccccc1OC)Cc1ccccc1 | 3.5 (≈ 11.3 µM)
Cc1ccc(C(CC(=O)O)NC(=O)CCNC(=O)c2ccco2)cc1 (centres undefined) | > 51.7
CC(C)CN(C(=O)C1CCC1)c1c(N)n(Cc2ccccc2)c(=O)[nH]c1=O | 36.6 (≈ 98.8 µM)
Cc1ccccc1CC1(CO)CCCN(C(=O)CCC(F)(F)F)C1 (centres undefined) | 48.3 (≈ 141 µM)
FC(F)(F)c1ccccc1-c1nc(-c2ccncc2)no1 | 7.6 (≈ 26.1 µM)
CCC1(CC)C(=O)N(C)C(=O)NC1=NC | > 31.7
O=C1CCCN1CCCNC(=S)Nc1ccccc1Cl | 38.4 (≈ 123 µM)
CCc1cccc(CC)c1C(OC(C)=O)c1cccnc1 (centres undefined) | 30.7 (≈ 108 µM)
CNC(=O)COC(=O)c1cc2c(s1)CCCC2 | > 38
CN1CCSc2ccc(C(=O)Nc3cccc(F)c3)cc21 | 1.4 (≈ 4.63 µM)
CCOC(=O)c1cc(C#N)c(SC)nc1C | 0.9 (≈ 3.81 µM)
N#Cc1ccccc1NC(=O)Nc1ccccc1 | > 35.6
